Test results: ChEMBL document CHEMBL1201862, “PubChem BioAssay data set” (2004)
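Following 48 hours of exposure in 96-well plates, responses at five concentrations were used to interpolate endpoints linearly. Here, GI50 denotes the concentration required for 50% inhibition of growth.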 Activity calls are given as the source filed them. Rule as the data show it: active = GI50 up to about 1.1 µM and inactive = higher.

Key:
Assay in all cases: NCI anticancer screen, dose series, 48 h
[1] = test system: CCRF-CEM
[2] = test system: MCF7
[3] = test system: PC-3
[4] = test system: CAKI-1
[5] = test system: U-251
[6] = test system: DU-145
[7] = test system: TK-10
[8] = test system: RXF 393
[9] = test system: NCI-H226
[10] = test system: SNB-19
[11] = test system: LOX IMVI
[12] = test system: NCI/ADR-RES
[13] = test system: HCT-15
[14] = test system: K562
[15] = test system: OVCAR-8
[16] = test system: NCI-H460
[17] = test system: SN12C
[18] = test system: OVCAR-5
[19] = test system: BT-549

| Compound | GI50 [1] | GI50 [2] | GI50 [3] | GI50 [4] | GI50 [5] | GI50 [6] | GI50 [7] | GI50 [8] | GI50 [9] | GI50 [10] | GI50 [11] | GI50 [12] | GI50 [13] [µM] | GI50 [14] | GI50 [15] | GI50 [16] | GI50 [17] | GI50 [18] | GI50 [19] |
| --- | --- | --- | --- | --- | --- | --- | --- | --- | --- | --- | --- | --- | --- | --- | --- | --- | --- | --- | --- |
| CCNc1cc2c3c(c1)CCN3CCC2 | 4.2 µM (inactive) | > 10 µM (inactive) | > 10 µM (inactive) | > 10 µM (inactive) | > 10 µM (inactive) | > 10 µM (inactive) | > 10 µM (inactive) | > 10 µM (inactive) | > 10 µM (inactive) | > 10 µM (inactive) | > 10 µM (inactive) | > 10 µM (inactive) | > 10 | 1.72 µM (inactive) | 8.59 µM (inactive) | > 10 µM (inactive) | > 10 µM (inactive) |  |  |
| CSc1cc(Cl)c(C)cc1S(=O)(=O)NC(=O)NNc1cccc(C(F)(F)F)n1 | > 100 µM (inactive) | > 100 µM (inactive) | > 100 µM (inactive) | > 100 µM (inactive) | > 100 µM (inactive) | > 100 µM (inactive) |  | > 100 µM (inactive) | > 100 µM (inactive) | > 100 µM (inactive) | > 100 µM (inactive) | > 100 µM (inactive) | > 100 | > 100 µM (inactive) | > 100 µM (inactive) | > 100 µM (inactive) | > 100 µM (inactive) | > 100 µM (inactive) |  |
| S=C(NCCc1ccccn1)N/N=C/c1ccccn1 | < 0.01 µM (active) | < 0.01 µM (active) | 0.0115 µM (active) | < 0.01 µM (active) |  | 1.48 µM (inactive) | 0.42 µM (active) |  | 0.0598 µM (active) | 2.28 µM (inactive) | < 0.0373 µM (active) | 0.0147 µM (active) |  | < 0.01 µM (active) | 0.0489 µM (active) | 0.501 µM (active) | 1.11 µM (active) | < 0.018 µM (active) |  |
| O=C(c1cccs1)N1CCc2ccccc2C1 | 40.4 µM (inactive) | > 100 µM (inactive) | > 100 µM (inactive) | > 100 µM (inactive) | > 100 µM (inactive) | > 100 µM (inactive) | > 100 µM (inactive) | > 100 µM (inactive) | > 100 µM (inactive) | > 100 µM (inactive) | > 100 µM (inactive) | 42.1 µM (inactive) | > 100 | 39.1 µM (inactive) |  | > 100 µM (inactive) | > 100 µM (inactive) | > 100 µM (inactive) |  |
| CSC1=N/C(=C\c2ccc(Cl)cc2)C(=O)N1CN1CCCCC1 | 26.5 µM (inactive) | 5.33 µM (inactive) | 35.3 µM (inactive) |  | 47.8 µM (inactive) | 89.3 µM (inactive) | 31.6 µM (inactive) |  | > 100 µM (inactive) |  | 44.7 µM (inactive) | 54.3 µM (inactive) | 25.9 | 53.7 µM (inactive) | 37.1 µM (inactive) |  | 67.5 µM (inactive) | 99.1 µM (inactive) |  |
| C/C(O)=C1\CC2CN3CCc4c([nH]c5ccccc45)C3CC2CC1=O (centres undefined) | 29.4 µM (inactive) |  |  |  | > 100 µM (inactive) |  | > 100 µM (inactive) | 20.9 µM (inactive) | 54.1 µM (inactive) | > 100 µM (inactive) | 26.1 µM (inactive) |  | 45.4 | 28.5 µM (inactive) | 89.1 µM (inactive) | > 100 µM (inactive) | 71.1 µM (inactive) | 70 µM (inactive) |  |
| C/C(CC(O)(C(F)(F)F)C(F)(F)F)=N\NC(N)=S | > 10 µM (inactive) | > 10 µM (inactive) | > 10 µM (inactive) | > 10 µM (inactive) | > 10 µM (inactive) | > 10 µM (inactive) | > 10 µM (inactive) | > 10 µM (inactive) | > 10 µM (inactive) | > 10 µM (inactive) | > 10 µM (inactive) | > 10 µM (inactive) | > 10 | > 10 µM (inactive) | > 10 µM (inactive) | > 10 µM (inactive) | > 10 µM (inactive) |  |  |
| CCCCCCCCCCCCCCCCNC(=O)/C(O)=C/C(=O)c1ccc(C)cc1 | > 10 µM (inactive) | > 10 µM (inactive) | 3.32 µM (inactive) | > 10 µM (inactive) | > 10 µM (inactive) | > 10 µM (inactive) | > 10 µM (inactive) | > 10 µM (inactive) | > 10 µM (inactive) |  | > 10 µM (inactive) | > 10 µM (inactive) | > 10 | > 10 µM (inactive) | > 10 µM (inactive) | > 10 µM (inactive) | > 10 µM (inactive) | > 10 µM (inactive) |  |
| Cc1cc2c(cc1-c1cc3c(cc1C)C(C(C)C)=C(O)C(=O)/C3=C\Nc1ccccn1)/C(=C/Nc1ccccn1)C(=O)C(O)=C2C(C)C | 12.2 µM (inactive) | 52.5 µM (inactive) | 41.7 µM (inactive) | 45.8 µM (inactive) | 34.4 µM (inactive) | > 100 µM (inactive) | > 100 µM (inactive) | 45.5 µM (inactive) | 23 µM (inactive) | 52.6 µM (inactive) | 35.4 µM (inactive) | 27.9 µM (inactive) | 33.9 | 31.8 µM (inactive) | 29 µM (inactive) | 43.2 µM (inactive) | 74.6 µM (inactive) | > 100 µM (inactive) |  |
| COC(=O)/C=C(\CC(=O)OC)n1nnnc1[C@@H]1C[C@H](COC(c2ccccc2)(c2ccccc2)c2ccccc2)[C@H]2OC(C)(C)O[C@H]21 | 22.9 µM (inactive) | 31.9 µM (inactive) | > 100 µM (inactive) | > 100 µM (inactive) | > 100 µM (inactive) | > 100 µM (inactive) | > 100 µM (inactive) | 42.1 µM (inactive) | > 100 µM (inactive) | > 100 µM (inactive) | > 100 µM (inactive) |  |  | 65.5 µM (inactive) | > 100 µM (inactive) |  | > 100 µM (inactive) | > 100 µM (inactive) |  |
| CCc1cc2c(c3c1CCC3=O)CC1(Cc3ccc(C)cc3C1)C2 (centres undefined) | 13.6 µM (inactive) | 32.2 µM (inactive) | 23 µM (inactive) |  | 30.5 µM (inactive) |  | > 100 µM (inactive) | 34.8 µM (inactive) | 13.5 µM (inactive) |  | 50.4 µM (inactive) | > 100 µM (inactive) | 46.3 | 30.5 µM (inactive) | > 100 µM (inactive) |  | 43.4 µM (inactive) | 29.4 µM (inactive) |  |
| OC(c1cccs1)c1cc2ccccc2s1 (centres undefined) | > 10 µM (inactive) | > 10 µM (inactive) | > 10 µM (inactive) | > 10 µM (inactive) | > 10 µM (inactive) | > 10 µM (inactive) | > 10 µM (inactive) | > 10 µM (inactive) | > 10 µM (inactive) | > 10 µM (inactive) | > 10 µM (inactive) | > 10 µM (inactive) | > 10 | > 10 µM (inactive) | > 10 µM (inactive) | > 10 µM (inactive) | > 10 µM (inactive) | > 10 µM (inactive) |  |
| Nc1cc2ncnc(Nc3cccc(Br)c3)c2cn1 | 96.8 µM (inactive) |  | 28.5 µM (inactive) | 32.4 µM (inactive) | 18.7 µM (inactive) |  | 2.52 µM (inactive) | 41.5 µM (inactive) | 23.8 µM (inactive) | 67.5 µM (inactive) | 38 µM (inactive) | 45.6 µM (inactive) | 12.3 | > 100 µM (inactive) | 36.1 µM (inactive) | 30 µM (inactive) | 17.6 µM (inactive) | 26.7 µM (inactive) | > 100 µM (inactive) |
